Measured values: patent US20200131159A1, “POSITIVE ALLOSTERIC MODULATORS OF THE MUSCARINIC ACETYLCHOLINE RECEPTOR M1” (Vanderbilt University, priority 2018, published 2020)

Target: T1, human mAChR M1 (Homo sapiens, UniProt P11229)
T1 construct: hM1 and hM4 cDNAs were purchased from Missouri S&T cDNA Resource; host or cells: CHO-K1 cells, stably transfected with Lipofectamine2000
T1 sequence (P11229 1-460): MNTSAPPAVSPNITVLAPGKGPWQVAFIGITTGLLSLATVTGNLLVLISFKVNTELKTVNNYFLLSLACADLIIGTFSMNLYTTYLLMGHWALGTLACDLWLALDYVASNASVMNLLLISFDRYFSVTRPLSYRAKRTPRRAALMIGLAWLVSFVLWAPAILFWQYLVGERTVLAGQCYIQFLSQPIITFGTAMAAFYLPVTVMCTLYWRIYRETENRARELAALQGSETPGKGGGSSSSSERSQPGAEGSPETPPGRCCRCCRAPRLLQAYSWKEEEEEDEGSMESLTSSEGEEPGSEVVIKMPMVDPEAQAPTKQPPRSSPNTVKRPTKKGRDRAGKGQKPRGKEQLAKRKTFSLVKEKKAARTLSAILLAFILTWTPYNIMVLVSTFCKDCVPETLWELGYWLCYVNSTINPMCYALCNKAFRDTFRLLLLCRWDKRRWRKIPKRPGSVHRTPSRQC
Assay: mAChR M1 cell-based functional assay (calcium mobilization, PAM mode, EC20 acetylcholine)
Settings: CHO-K1 cells expressing hM1, calcium flux (Fluo-4); for Emax: EC20 acetylcholine response; for EC50: concentration-dependent increase in the EC20 acetylcholine response
Description: Chinese hamster ovary (CHO-K1) cells stably expressing rat (r)M1 were purchased from the American Type Culture Collection and cultured according to their indicated protocol. CHO cells stably expressing human (h)M2, hM3, and hM5 were described previously (Levey, et al., 1991); hM1 and hM4 cDNAs were purchased from Missouri S&T cDNA Resource; rM4 cDNA was provided by T. I. Bonner (National Institutes of Health, Bethesda, Md.). rM2 and rM3 were cloned from a rat brain cDNA library and sequence verified. hM1, rM2, rM3, hM4, and rM4 cDNAs were used to stably transfect CHO-K1 cells purchased from the American Type Culture Collection using Lipofectamine2000. To make stable rM2, hM2, rM3, hM4, and rM4 cell lines for use in calcium mobilization assays, these cells also were stably transfected with a chimeric G-protein (Gqi5) (provided by B. R. Conklin, University of California, San Francisco) using Lipofectamine 2000. rM1, hM1, rM3, hM3, rM5, and hM5 cells were grown in Ham's F-12 medium containing 10% heat-inactivated fetal bovine serum (FBS), 20 mM HEPES, and 50 µg/mL G418 sulfate. rM2-Gqi5, hM2-Gqi5, and hM4-Gqi5 cells were grown in the same medium also containing 500 μg/mL Hygromycin B. Stable rM4-Gqi5 cells were grown in DMEM containing 10% heat-inactivated FBS, 20 mM HEPES, 400 μg/mL G418 sulfate, and 500 μg/mL Hygromycin B.
For high throughput measurement of agonist-evoked increases in intracellular calcium, CHO-K1 cells stably expressing muscarinic receptors were plated in growth medium lacking G418 and hygromycin at 15,000 cells/20 μL/well in Greiner 384-well black-walled, tissue culture (TC)-treated, clear-bottom plates (VWR). Cells were incubated overnight at 37° C. and 5% CO2. The next day, cells were washed using an ELX 405 (BioTek) with four washes (80 μL) of assay buffer then aspirated to 20 μL. Next, 20 μL of 16 μM Fluo-4/acetoxymethyl ester (Invitrogen, Carlsbad, Calif.) prepared as a 2.3 mM stock in DMSO and mixed in a 1:1 ratio with 10% (w/v) Pluronic F-127 and diluted in assay buffer was added to the wells and the cell plates were incubated for 50 min at 37° C. and 5% CO2. Dye was removed by washing with the ELX 405 (four 80 μL washes of assay buffer) then aspirated to 20 μL. Compound master plates were formatted in an 11 point CRC format (1:3 dilutions) in 100% DMSO with a starting concentration of 10 mM using the BRAVO liquid handler (Agilent). Test compound CRCs were then transferred to daughter plates (240 nL) using the Echo acoustic plate reformatter (Labcyte, Sunnyvale, Calif.) and then diluted into assay buffer (40 μL) to a 2× stock using a Thermo Fisher Combi (Thermo Fisher Scientific, Waltham, Mass.).
Calcium flux was measured using the Functional Drug Screening System (FDSS) 6000 (Hamamatsu Corporation, Tokyo, Japan) as an increase in the fluorescent static ratio. Compounds were applied to cells (20 μL, 2×) using the automated system of the FDSS 6000 at 4 s into the 300 s protocol and the data were collected at 1 Hz. […] Agonist activity was analyzed as a concentration-dependent increase in calcium mobilization upon compound addition. Emax values for agonist activity are expressed relative to the maximum for acetylcholine. Positive allosteric modulator activity was analyzed as a concentration-dependent increase in the EC20 acetylcholine response. Antagonist activity was analyzed as a concentration-dependent decrease in the […] acetylcholine response. Concentration-response curves were generated using a four-parameter logistical equation in XLfit curve fitting software (IDBS, Bridgewater, N.J.) for Excel (Microsoft, Redmond, Wash.) or Prism (GraphPad Software, Inc., San Diego, Calif.).
Activity (EC50 and Emax) was determined in the mAChR M1 cell-based functional assay as described above and the data are shown in Table 2. The compound numbers correspond to the compound numbers used in Table 1.

**Q.** With `Cn1cc2c(-c3cc(F)c(Cc4cc(C(=O)N[C@H]5CCCC[C@@H]5O)c5ncccc5c4)c(F)c3)cccc2n1` [compound 22, 6-[[2,6-difluoro-4-(2-methylindazol-4-yl)phenyl]methyl]-N-[(1S,2S)-2-hydroxycyclohexyl]quinoline-8-carboxamide] as the molecule, how does the Emax read?
**A.** 42%

**Q.** What about the EC50 of the same molecule?
**A.** 5710 nM

**Q.** How did the Emax turn out when `Cc1c(Cc2ccc(-n3cccn3)cc2)cc(C(=O)N[C@H]2CCOC[C@@H]2O)c2ncccc12` [compound 23, N-[(3R,4S)-3-hydroxytetrahydropyran-4-yl]-5-methyl-6-[(4-pyrazol-1-ylphenyl)methyl]quinoline-8-carboxamide] was run?
**A.** 77%

**Q.** And the EC50?
**A.** 108 nM

**Q.** With `Cc1c(Cc2ccc(-n3cccn3)cc2)cc(C(=O)N[C@H]2CCCCC[C@@H]2O)c2ncccc12` [compound 24, N-[(1S,2S)-2-hydroxycycloheptyl]-5-methyl-6-[(4-pyrazol-1-ylphenyl)methyl]quinoline-8-carboxamide] as the molecule, how does the Emax read?
**A.** 66%

**Q.** `Cc1c(Cc2ccc(-n3cccn3)cc2)cc(C(=O)N[C@H]2CCCC[C@@H]2O)c2ncccc12` [compound 25, N-[(1S,2S)-2-hydroxycyclohexyl]-5-methyl-6-[(4-pyrazol-1-ylphenyl)methyl]quinoline-8-carboxamide] was tested. Which Emax did it give?
**A.** 81%

**Q.** What about the EC50 of the same molecule?
**A.** 386 nM

**Q.** `Cc1c(Cc2ccc(-n3cccn3)cc2)cc(C(=O)N[C@H]2CCC[C@@H]2O)c2ncccc12` [compound 26, N-[(1S,2S)-2-hydroxycyclopentyl]-5-methyl-6-[(4-pyrazol-1-ylphenyl)methyl]quinoline-8-carboxamide] was tested. Which Emax did it give?
**A.** 81%

**Q.** And the EC50?
**A.** 958 nM

**Q.** For `Cc1c(Cc2ccc(-n3cccn3)cc2)cc(C(=O)N[C@H]2CC[C@@H]2O)c2ncccc12` [compound 27, N-[(1S,2S)-2-hydroxycyclobutyl]-5-methyl-6-[(4-pyrazol-1-ylphenyl)methyl]quinoline-8-carboxamide], which Emax is on record?
**A.** 73%

**Q.** And the EC50?
**A.** 1710 nM

**Q.** For `Cc1c(Cc2ccc(-n3cccn3)cc2)cc(C(=O)NC2CCOCC2)c2ncccc12` [compound 28, 5-methyl-6-[(4-pyrazol-1-ylphenyl)methyl]-N-tetrahydropyran-4-yl-quinoline-8-carboxamide], which Emax is on record?
**A.** 41%

**Q.** What about the EC50 of the same molecule?
**A.** 2250 nM

**Q.** What does the source list for `Cc1c(Cc2ccc(-c3ccn(C)n3)nc2)cc(C(=O)N[C@H]2CCOC[C@@H]2O)c2ncccc12` [compound 29, N-[(3R,4S)-3-hydroxytetrahydropyran-4-yl]-5-methyl-6-[[6-(1-methylpyrazol-3-yl)-3-pyridyl]methyl]quinoline-8-carboxamide]?
**A.** Emax: 72%; EC50: 197 nM

**Q.** For `Cc1c(Cc2ccc(-c3ccn(C)n3)nc2)cc(C(=O)N[C@H]2CCCC[C@@H]2O)c2ncccc12` [compound 30, N-[(1S,2S)-2-hydroxycyclohexyl]-5-methyl-6-[[6-(1-methylpyrazol-3-yl)-3-pyridyl]methyl]quinoline-8-carboxamide], which Emax is on record?
**A.** 72%

**Q.** What about the EC50 of the same molecule?
**A.** 356 nM

**Q.** `Cc1c(Cc2ccc(-c3ccn(C)n3)nc2)cc(C(=O)NC2CCOCC2)c2ncccc12` [compound 31, 5-methyl-6-[[6-(1-methylpyrazol-3-yl)-3-pyridyl]methyl]-N-tetrahydropyran-4-yl-quinoline-8-carboxamide] was tested. Which Emax did it give?
**A.** 67%

**Q.** What about the EC50 of the same molecule?
**A.** 4390 nM

**Q.** Which Emax does the source give for `Cc1nc(-c2ccc(Cc3cc(C(=O)N[C@H]4CCOC[C@@H]4O)c4ncccc4c3C)cc2)co1` [compound 32, N-[(3R,4S)-3-hydroxytetrahydropyran-4-yl]-5-methyl-6-[[4-(2-methyloxazol-4-yl)phenyl]methyl]quinoline-8-carboxamide] here?
**A.** 69%

**Q.** What about the EC50 of the same molecule?
**A.** 336 nM

**Q.** How did the Emax turn out when `Cc1nc(-c2ccc(Cc3cc(C(=O)N[C@H]4CCCCC[C@@H]4O)c4ncccc4c3C)cc2)co1` [compound 33, N-[(1S,2S)-2-hydroxycycloheptyl]-5-methyl-6-[[4-(2-methyloxazol-4-yl)phenyl]methyl]quinoline-8-carboxamide] was run?
**A.** 75%

**Q.** And the EC50?
**A.** 2040 nM

**Q.** Which Emax does the source give for `Cc1nc(-c2ccc(Cc3cc(C(=O)N[C@H]4CCCC[C@@H]4O)c4ncccc4c3C)cc2)co1` [compound 34, N-[(1S,2S)-2-hydroxycyclohexyl]-5-methyl-6-[[4-(2-methyloxazol-4-yl)phenyl]methyl]quinoline-8-carboxamide] here?
**A.** 74%

**Q.** What about the EC50 of the same molecule?
**A.** 562 nM

**Q.** `Cc1nc(-c2ccc(Cc3cc(C(=O)NC4CCOCC4)c4ncccc4c3C)cc2)co1` [compound 35, 5-methyl-6-[[4-(2-methyloxazol-4-yl)phenyl]methyl]-N-tetrahydropyran-4-yl-quinoline-8-carboxamide] was tested. Which Emax did it give?
**A.** 38%

**Q.** And the EC50?
**A.** 1370 nM
